Experimental data: patent publication US20170058314A1, “NOVEL METHODOLOGY FOR IDENTIFYING ANTI-PERSISTER ACTIVITY AND ANTIMICROBIAL SUSCEPTIBILITY FOR BORRELIA BURGDORFERI AND OTHER BACTERIA” (priority 2014, published 2017)

Test system: M. tuberculosis H37Ra WT
Assay type: cell-based, Mycobacterium tuberculosis

NC(=O)c1cnccn1 [PZA, pyrazinamide]
residual viability of H37Ra WT compared with PZA resistant mutants: obviously decreased
